This is an account of results in ChEMBL document CHEMBL1133072, “Synthesis and biological activity of 1beta-methyl-2-[5'-isoxazoloethenylpyrrolidin-3'-ylthio]carbapenems” (2000).

In brackets after ≈: the same amount, converted by molar mass.

Test [1] relates to Staphylococcus aureus. The test is described as follows: Minimum inhibitory concentration against Staphylococcus aureus SG 511 was determined by agar dilution method using Mueller-Hinton. The format is functional. (In general: In agar dilution the substance is mixed into plates at graded concentrations.)
The target in test [2] is Dipeptidase 1 (Sus scrofa) (UniProt P22412). The test is described as follows: Stability to porcine renal DHP-I was determined.
Chain of Dipeptidase 1 (Sus scrofa) (P22412 whole entry, looked up): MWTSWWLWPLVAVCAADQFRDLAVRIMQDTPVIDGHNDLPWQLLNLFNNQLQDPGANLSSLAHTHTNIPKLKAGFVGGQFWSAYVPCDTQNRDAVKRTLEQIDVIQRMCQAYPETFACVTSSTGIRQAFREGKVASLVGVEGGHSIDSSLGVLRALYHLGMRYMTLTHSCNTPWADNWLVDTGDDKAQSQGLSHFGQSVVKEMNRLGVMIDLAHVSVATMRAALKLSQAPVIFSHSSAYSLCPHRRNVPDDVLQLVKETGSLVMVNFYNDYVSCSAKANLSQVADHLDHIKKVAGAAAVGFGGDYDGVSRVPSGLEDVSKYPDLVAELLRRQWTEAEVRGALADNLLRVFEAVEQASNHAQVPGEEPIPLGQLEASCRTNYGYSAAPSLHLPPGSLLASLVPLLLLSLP
Another test concerns Klebsiella aerogenes. The test can be described thus: Minimum inhibitory concentration against Klebsiella aerogenes 1522E was determined by agar dilution method using Mueller-Hinton. The format is functional.
The subject of test [3] is Pseudomonas aeruginosa. The test is described as follows: Minimum inhibitory concentration against Pseudomonas aeruginosa 1771M was determined by agar dilution method using Mueller-Hinton. Type of test: functional.
Test [4] concerns Staphylococcus aureus. The test is described as follows: Minimum inhibitory concentration against Staphylococcus aureus 285 was determined by agar dilution method using Mueller-Hinton. The format is functional.
The subject of test [5] is Escherichia coli. The test is described as follows: Minimum inhibitory concentration against Escherichia coli 055 was determined by agar dilution method using Mueller-Hinton. Type of test: functional.
For the next test, the system named is Streptococcus pyogenes. The test can be described thus: Minimum inhibitory concentration against Streptococcus pyogenes 308A was determined by agar dilution method using Mueller-Hinton. Type of test: functional.
Test [6] concerns Escherichia coli. The test can be described thus: Minimum inhibitory concentration against Escherichia coli 1507E was determined by agar dilution method using Mueller-Hinton. The format is functional.
The next test concerns Enterobacter cloacae. The test can be described thus: Minimum inhibitory concentration against Enterobacter cloacae 1321E was determined by agar dilution method using Mueller-Hinton. Type of test: functional.
The subject of test [7] is Pseudomonas aeruginosa. The test can be described thus: Minimum inhibitory concentration against Pseudomonas aeruginosa 1592E was determined by agar dilution method using Mueller-Hinton. The format is functional.
Test [8] concerns Staphylococcus aureus. The test is described as follows: Minimum inhibitory concentration against Staphylococcus aureus 503 was determined by agar dilution method using Mueller-Hinton. The format is functional.
In test [9] the test system is Pseudomonas aeruginosa. The test is described as follows: Minimum inhibitory concentration against Pseudomonas aeruginosa 9027 was determined by agar dilution method using Mueller-Hinton. The format is functional.
The next test concerns Salmonella typhimurium. The test can be described thus: Minimum inhibitory concentration against Salmonella Typhimurium was determined by agar dilution method using Mueller-Hinton. The conditions noted are these: Salmonella enterica. Type of test: functional, Salmonella enterica subsp. enterica serovar Typhimurium.
Test [10] has as its target Dipeptidase 1 (Sus scrofa) (UniProt P22412). The test is described as follows: Relative half life of hydrolysis to meropenem by partially purified porcine renal DHP-I was determined.

As for `C[C@@H](O)[C@H]1C(=O)N2C(C(=O)O)=C(S[C@@H]3CN[C@H](C(=O)N(C)C)C3)[C@H](C)[C@H]12` [MEROPENEM], the MIC (usually the least concentration at which growth counts as inhibited) in the test on Staphylococcus aureus [1] came out at 0.195 µg/mL (≈ 0.509 µM); in the test on Klebsiella aerogenes, 0.049 µg/mL (≈ 0.128 µM); in the test with Pseudomonas aeruginosa [3] it was 0.049 µg/mL (≈ 0.128 µM); in the test with Staphylococcus aureus [4] it was 0.195 µg/mL (≈ 0.509 µM); with Escherichia coli [5], 0.025 µg/mL (≈ 0.0652 µM); in the test on Streptococcus pyogenes, 0.013 µg/mL (≈ 0.0339 µM). The minimum inhibitory concentration (MIC) in the test on Escherichia coli [6] stood at 0.025 µg/mL (≈ 0.0652 µM); with Enterobacter cloacae, 0.025 µg/mL (≈ 0.0652 µM); with Pseudomonas aeruginosa [7], 0.195 µg/mL (≈ 0.509 µM); against Staphylococcus aureus [8], 0.098 µg/mL (≈ 0.256 µM); against Pseudomonas aeruginosa [9] it was 0.195 µg/mL (≈ 0.509 µM); with Salmonella typhimurium it was 0.049 µg/mL (≈ 0.128 µM). Also, in test [2], the Activity was 1.

With `C[C@@H](O)[C@H]1C(=O)N2C(C(=O)O)=C(S[C@@H]3CN[C@H](/C=C/c4ccno4)C3)[C@H](C)[C@H]12`, the MIC with Staphylococcus aureus [1] came to 0.025 µg/mL (≈ 0.0617 µM); against Klebsiella aerogenes, 0.049 µg/mL (≈ 0.121 µM); against Pseudomonas aeruginosa [3] it was 0.195 µg/mL (≈ 0.481 µM); against Staphylococcus aureus [4], 0.025 µg/mL (≈ 0.0617 µM); in the test on Escherichia coli [5], 0.025 µg/mL (≈ 0.0617 µM); in the test on Streptococcus pyogenes it was 0.004 µg/mL (≈ 0.00986 µM). For the same molecule, the minimum inhibitory concentration (MIC) against Escherichia coli [6] turned out to be 0.025 µg/mL (≈ 0.0617 µM); with Enterobacter cloacae, 0.025 µg/mL (≈ 0.0617 µM); against Pseudomonas aeruginosa [7], 0.195 µg/mL (≈ 0.481 µM); with Staphylococcus aureus [8], 0.013 µg/mL (≈ 0.0321 µM); against Pseudomonas aeruginosa [9] it was 0.195 µg/mL (≈ 0.481 µM); against Salmonella typhimurium, 0.049 µg/mL (≈ 0.121 µM). Also, the Relativity in [10] was determined as 1.95.

Regarding `COC(=O)c1cc(/C=C\[C@@H]2C[C@H](SC3=C(C(=O)O)N4C(=O)[C@H]([C@@H](C)O)[C@H]4[C@H]3C)CN2)on1`, the MIC against Staphylococcus aureus [1] came to 0.049 µg/mL (≈ 0.106 µM); against Klebsiella aerogenes it was 0.049 µg/mL (≈ 0.106 µM); in the test with Pseudomonas aeruginosa [3], 0.195 µg/mL (≈ 0.421 µM); in the test on Staphylococcus aureus [4], 0.049 µg/mL (≈ 0.106 µM); with Escherichia coli [5], 0.025 µg/mL (≈ 0.0539 µM); against Streptococcus pyogenes, 0.007 µg/mL (≈ 0.0151 µM). Further, the MIC in the test with Escherichia coli [6] amounted to 0.025 µg/mL (≈ 0.0539 µM); with Enterobacter cloacae, 0.025 µg/mL (≈ 0.0539 µM); against Pseudomonas aeruginosa [7] it was 0.195 µg/mL (≈ 0.421 µM); with Staphylococcus aureus [8], 0.025 µg/mL (≈ 0.0539 µM); against Pseudomonas aeruginosa [9], 0.098 µg/mL (≈ 0.211 µM); against Salmonella typhimurium it was 0.025 µg/mL (≈ 0.0539 µM). The same molecule gave a Relativity in test [10] of 1.35.

Regarding `COC(=O)c1cc(/C=C/[C@@H]2C[C@H](SC3=C(C(=O)O)N4C(=O)[C@H]([C@@H](C)O)[C@H]4[C@H]3C)CN2)on1`, the MIC is 0.049 µg/mL (≈ 0.106 µM) against Staphylococcus aureus [1]; 0.049 µg/mL (≈ 0.106 µM) with Klebsiella aerogenes; 0.098 µg/mL (≈ 0.211 µM) with Pseudomonas aeruginosa [3]; 0.049 µg/mL (≈ 0.106 µM) against Staphylococcus aureus [4]; 0.025 µg/mL (≈ 0.0539 µM) against Escherichia coli [5]; 0.007 µg/mL (≈ 0.0151 µM) in the test on Streptococcus pyogenes. The MIC against Escherichia coli [6] is 0.025 µg/mL (≈ 0.0539 µM); in the test with Enterobacter cloacae, 0.025 µg/mL (≈ 0.0539 µM); in the test with Pseudomonas aeruginosa [7], 0.195 µg/mL (≈ 0.421 µM); with Staphylococcus aureus [8], 0.025 µg/mL (≈ 0.0539 µM); against Pseudomonas aeruginosa [9], 0.098 µg/mL (≈ 0.211 µM); in the test with Salmonella typhimurium it was 0.025 µg/mL (≈ 0.0539 µM). Further, the Relativity in test [10] was 2.68.

For the molecule `C[C@@H](O)[C@H]1C(=O)N2C(C(=O)O)=C(S[C@@H]3CN[C@H](/C=C/c4cc(CO)no4)C3)[C@H](C)[C@H]12`, the minimal inhibitory concentration (MIC) against Staphylococcus aureus [1] is 0.025 µg/mL (≈ 0.0574 µM); against Klebsiella aerogenes it was 0.049 µg/mL (≈ 0.113 µM); in the test with Pseudomonas aeruginosa [3], 0.098 µg/mL (≈ 0.225 µM); in the test on Staphylococcus aureus [4], 0.025 µg/mL (≈ 0.0574 µM); against Escherichia coli [5], 0.025 µg/mL (≈ 0.0574 µM); against Streptococcus pyogenes it was 0.007 µg/mL (≈ 0.0161 µM). Besides, the MIC with Escherichia coli [6] stood at 0.025 µg/mL (≈ 0.0574 µM); in the test with Enterobacter cloacae it was 0.025 µg/mL (≈ 0.0574 µM); against Pseudomonas aeruginosa [7], 0.195 µg/mL (≈ 0.448 µM); against Staphylococcus aureus [8], 0.025 µg/mL (≈ 0.0574 µM); against Pseudomonas aeruginosa [9] it was 0.195 µg/mL (≈ 0.448 µM); against Salmonella typhimurium, 0.049 µg/mL (≈ 0.113 µM). In addition, the Relativity in test [10] came to 2.01.

As for `C[C@@H](O)[C@H]1C(=O)N2C(C(=O)O)=C(S[C@@H]3CN[C@H](/C=C\c4cc(CO)no4)C3)[C@H](C)[C@H]12`, the MIC in the test with Staphylococcus aureus [1] came to 0.049 µg/mL (≈ 0.113 µM); against Klebsiella aerogenes it was 0.098 µg/mL (≈ 0.225 µM); with Pseudomonas aeruginosa [3], 1.56 µg/mL (≈ 3.59 µM); against Staphylococcus aureus [4], 0.049 µg/mL (≈ 0.113 µM); against Escherichia coli [5] it was 0.049 µg/mL (≈ 0.113 µM); against Streptococcus pyogenes, 0.013 µg/mL (≈ 0.0299 µM). Moreover, the MIC in the test on Escherichia coli [6] came to 0.049 µg/mL (≈ 0.113 µM); against Enterobacter cloacae, 0.049 µg/mL (≈ 0.113 µM); in the test on Pseudomonas aeruginosa [7], 3.12 µg/mL (≈ 7.18 µM); against Staphylococcus aureus [8] it was 0.049 µg/mL (≈ 0.113 µM); against Pseudomonas aeruginosa [9] it was 3.12 µg/mL (≈ 7.18 µM); in the test on Salmonella typhimurium, 0.098 µg/mL (≈ 0.225 µM). The molecule further yielded a Relativity in test [10] of 1.59.
